# Assays:
# [1] = Pharmacokinetic study: plasma concentration of PTH in dogs after inhalation of dry powder aerosol (RIA); assay type: in vivo, Beagle dogs; settings: for Shape of serum/plasma profile after inhalation: dry powder aerosol inhaled via endotracheal tube; for Plasma concentration of PTH: PTH 1-84, inhaled dose 14 μg/kg
# Method: The powder formulations were compressed in dust containers and generated continuously as dry powder aerosols by a Wright Dust Feed (WDF). The aerosols were generated by scraping off the formulations from the tablets in the dust containers. The mass flow through the WDF was 8.01/min.
# The inhaled dose (ID) was determined by measuring the inspiratory tidal volume (ITV) and the PTH concentration during inhalation.
# Beagle dogs (n=5, at each formulation) were starved for 16 hours before inhalation and the experiments were performed in the mornings.
# Venous blood samples for determination of PTH concentration were taken from the jugular vein into heparinized vacutainer tubes (2 ml). The samples were collected before dosing and at 10, 15, 20, 30, 40, 60, 90, 120, 240 and 360 minutes after start (t=0) of inhalation. The whole blood samples were centrifuged immediately, alternatively kept in ice water for maximum 20 minutes before centrifugation, and the plasma (1 ml) was sampled for PTH analysis. PTH in plasma was analyzed using radioimmunoassay (RIA) kits.
# [2] = rats, intratracheal (IT) administration, cited from earlier work; for Shape of serum profile: 90 minutes experiment
# [3] = tested on: ovariectomized osteopenic rats; experiment: Bone effect: mineral density of the distal femur in ovariectomized osteopenic rats; assay type: in vivo; settings: inhalation, 4 weeks of administration starting 6 weeks post ovariectomy
# Method: The bone effect is measured in ovariectomized osteopenic rats as mineral density as weight/volume of the distal femur after 4 weeks of administration; starting 6 weeks post ovariectomy.
compound,measurement,setting,value
CC[C@H](C)[C@H](NC(=O)[C@H](CCC(=O)O)NC(=O)[C@H](CO)NC(=O)[C@@H](NC(=O)[C@@H](N)CO)C(C)C)C(=O)N[C@@H](CCC(N)=O)C(=O)N[C@@H](CC(C)C)C(=O)N[C@@H](CCSC)C(=O)N[C@@H](Cc1cnc[nH]1)C(=O)N[C@@H](CC(N)=O)C(=O)N[C@@H](CC(C)C)C(=O)NCC(=O)N[C@@H](CCCCN)C(=O)N[C@@H](Cc1cnc[nH]1)C(=O)N[C@@H](CC(C)C)C(=O)N[C@@H](CC(N)=O)C(=O)N[C@@H](CO)C(=O)N[C@@H](CCSC)C(=O)N[C@@H](CCC(=O)O)C(=O)N[C@@H](CCCN=C(N)N)C(=O)N[C@H](C(=O)N[C@@H](CCC(=O)O)C(=O)N[C@@H](Cc1c[nH]c2ccccc12)C(=O)N[C@@H](CC(C)C)C(=O)N[C@@H](CCCN=C(N)N)C(=O)N[C@@H](CCCCN)C(=O)N[C@@H](CCCCN)C(=O)N[C@@H](CC(C)C)C(=O)N[C@@H](CCC(N)=O)C(=O)N[C@@H](CC(=O)O)C(=O)N[C@H](C(=O)N[C@@H](Cc1cnc[nH]1)C(=O)N[C@@H](CC(N)=O)C(=O)N[C@@H](Cc1ccccc1)C(=O)O)C(C)C)C(C)C [PTH 1-34],level at time molar at 10 min,"[1]; beagle, dog, plasma, inhaled or intranasal, 4 ug/kg, PTH 1-34, inhaled dose 4.0 μg/kg, 10 min after start of inhalation",0.0304 nM
same,level at time molar at 0.25 h,"[1]; beagle, dog, plasma, inhaled or intranasal, 4 ug/kg, PTH 1-34, inhaled dose 4.0 μg/kg, 15 min after start of inhalation",0.0474 nM
same,level at time molar at 20 min,"[1]; beagle, dog, plasma, inhaled or intranasal, 4 ug/kg, PTH 1-34, inhaled dose 4.0 μg/kg, 20 min after start of inhalation",0.0496 nM
same,level at time molar at 0.5 h,"[1]; beagle, dog, plasma, inhaled or intranasal, 4 ug/kg, PTH 1-34, inhaled dose 4.0 μg/kg, 30 min after start of inhalation",0.0446 nM
same,level at time molar at 40 min,"[1]; beagle, dog, plasma, inhaled or intranasal, 4 ug/kg, PTH 1-34, inhaled dose 4.0 μg/kg, 40 min after start of inhalation",0.0362 nM
same,level at time molar at 1 h,"[1]; beagle, dog, plasma, inhaled or intranasal, 4 ug/kg, PTH 1-34, inhaled dose 4.0 μg/kg, 60 min after start of inhalation",0.026 nM
same,level at time molar at 1.5 h,"[1]; beagle, dog, plasma, inhaled or intranasal, 4 ug/kg, PTH 1-34, inhaled dose 4.0 μg/kg, 90 min after start of inhalation",0.017 nM
same,level at time molar at 2 h,"[1]; beagle, dog, plasma, inhaled or intranasal, 4 ug/kg, PTH 1-34, inhaled dose 4.0 μg/kg, 120 min after start of inhalation",0.0126 nM
same,level at time molar at 4 h,"[1]; beagle, dog, plasma, inhaled or intranasal, 4 ug/kg, PTH 1-34, inhaled dose 4.0 μg/kg, 240 min after start of inhalation",0.006 nM
same,level at time molar at 6 h,"[1]; beagle, dog, plasma, inhaled or intranasal, 4 ug/kg, PTH 1-34, inhaled dose 4.0 μg/kg, 360 min after start of inhalation",0.0076 nM
same,level at time molar at 0 h,"[1]; beagle, dog, plasma, inhaled or intranasal, 4 ug/kg, PTH 1-34, inhaled dose 4.0 μg/kg, time 0 min (before dosing)",0.008 nM
same,Shape of serum/plasma profile after inhalation,[1],pulsatile serum profile
same,Shape of serum profile,[2],activity diminishing rapidly thereafter
same,Time of serum peak,[2],15 min
"PTH 1-84: Human parathyroid hormone, 84 amino acid protein (SEQ ID NO: 1); given as micronised dry powder with lactose and citrate",Plasma concentration of PTH,[1]; 10 min after start of inhalation,0.0083 nM
same,Plasma concentration of PTH,[1]; 15 min after start of inhalation,0.0114 nM
same,Plasma concentration of PTH,[1]; 20 min after start of inhalation,0.0116 nM
same,Plasma concentration of PTH,[1]; 30 min after start of inhalation,0.0096 nM
same,Plasma concentration of PTH,[1]; 40 min after start of inhalation,0.0079 nM
same,Plasma concentration of PTH,[1]; 60 min after start of inhalation,0.0058 nM
same,Plasma concentration of PTH,[1]; 90 min after start of inhalation,0.0041 nM
same,Plasma concentration of PTH,[1]; 120 min after start of inhalation,0.003 nM
same,Plasma concentration of PTH,[1]; 360 min after start of inhalation,0.0026 nM
same,Plasma concentration of PTH,[1]; time 0 min (before dosing),0.0034 nM
same,Shape of serum/plasma profile after inhalation,[1],pulsatile serum profile
same,Shape of serum/plasma profile after inhalation,[1]; listed as full-length PTH,pulsative plasma profile
same,Effect on femur bone formation (mineral density of the distal femur),[3],significant effect on femur bone formation
same,Shape of serum profile,[2],plateau which did not diminish significantly during the 90 minutes

# From patent US6436902B1, “Therapeutic preparations for inhalation” (AstraZeneca AB, priority 1994, dated 2002)
